Experimental data taken from patent US20250230193A1, “CYCLIC COMPOUND HAVING SELECTIVE KRAS INHIBITORY EFFECT ON HRAS AND NRAS” (CHUGAI SEIYAKU KABUSHIKI KAISHA, priority 2022, published 2025).

Assays:
[1] = molecular target: GDP-bound NRAS wild-type protein (Homo sapiens, UniProt P01111); test: Binding to NRAS by surface plasmon resonance (SPR), Single Cycle Kinetics; settings: KD ratio NRAS/KRAS, SPR, GDP-bound wild-type proteins
[2] = molecular target: GDP-bound HRAS wild-type protein (Homo sapiens, UniProt P01112); test: Binding to HRAS by surface plasmon resonance (SPR), Single Cycle Kinetics; settings: KD ratio HRAS/KRAS, SPR, GDP-bound wild-type proteins
Chain of GDP-bound HRAS wild-type protein (P01112 whole entry): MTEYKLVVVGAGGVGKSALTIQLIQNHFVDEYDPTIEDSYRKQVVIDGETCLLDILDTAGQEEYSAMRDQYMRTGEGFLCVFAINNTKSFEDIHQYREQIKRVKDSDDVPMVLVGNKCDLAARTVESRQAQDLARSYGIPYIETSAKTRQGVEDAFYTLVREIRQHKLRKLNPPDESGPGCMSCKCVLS

Chain of GDP-bound NRAS wild-type protein (P01111 whole entry): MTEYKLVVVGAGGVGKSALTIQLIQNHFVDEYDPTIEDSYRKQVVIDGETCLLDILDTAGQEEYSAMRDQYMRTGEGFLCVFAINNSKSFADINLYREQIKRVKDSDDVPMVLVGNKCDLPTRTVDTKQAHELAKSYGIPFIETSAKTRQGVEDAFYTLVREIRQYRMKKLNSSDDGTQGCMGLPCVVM

| Structure (SMILES) | NRAS/KRAS (ratio of KD value with respect to GDP-bound NRAS wild-type protein to KD value with respect to KRAS) [1] | HRAS/KRAS (ratio of KD value with respect to GDP-bound HRAS wild-type protein to KD value with respect to KRAS) [2] |
| --- | --- | --- |
| CC[C@H](C)[C@@H]1NC(=O)[C@@H]2CCC/C=C/c3ccc(cc3)C[C@@H](C(=O)N(C)CC(=O)N[C@@H](CCc3ccc(Cl)c(Cl)c3)C(=O)N3C[C@H](OC4CCCC4)C[C@H]3C(=O)NC3(CC(C)(C)C3)C(=O)N(C)[C@@H](C3CCCC3)C(=O)N(C)[C@H](C(=O)N3CCCC3)CC(=O)N2C)N2CC/C=C\C[C@@H](C2=O)N(C)C(=O)CN(C)C1=O [PP3054] | A (a compound having 10 or more and less than 20 is denoted as A) | A (a compound having 10 or more and less than 20 is denoted as A) |
| CCO[C@@H]1C[C@H]2C(=O)NC3(CC(C)(C)C3)C(=O)N(C)[C@@H](C3CCCC3)C(=O)N(C)[C@H](C(=O)N(C)CC)CC(=O)N(C)[C@H]3C/C=C/c4ccc(cc4)C[C@@H](C(=O)N(C)CC(=O)N[C@@H](CCc4ccc(Cl)c(Cl)c4)C(=O)N2C1)N1CC/C=C\C[C@@H](C1=O)N(C)C(=O)CN(C)C(=O)[C@H]([C@@H](C)CC)NC3=O [PP3056] | A (a compound having 10 or more and less than 20 is denoted as A) | A (a compound having 10 or more and less than 20 is denoted as A) |
| CCO[C@@H]1C[C@H]2C(=O)NC3(CC(C)(C)C3)C(=O)N(C)[C@@H](C3CCCC3)C(=O)N(C)[C@H](C(=O)N(C)C)CC(=O)N(C)[C@H]3CCCCC/C=C/c4ccc(cc4)C[C@@H](C(=O)N(C)CC(=O)N[C@@H](CCc4ccc(Cl)c(Cl)c4)C(=O)N2C1)N1CC/C=C\C[C@@H](C1=O)N(C)C(=O)CN(C)C(=O)[C@H]([C@@H](C)CC)NC3=O [PP3057] | A (a compound having 10 or more and less than 20 is denoted as A) | B (a compound having 3 or more and less than 10 is denoted as B) |
| CC[C@H](C)[C@@H]1NC(=O)[C@@H]2CCC/C=C/c3ccc(cc3)C[C@@H](C(=O)N(C)CC(=O)N[C@@H](CCc3ccc(Cl)c(Cl)c3)C(=O)N3C[C@H](OC4CCC4)C[C@H]3C(=O)NC3(CC(C)(C)C3)C(=O)N(C)[C@@H](C3CCCC3)C(=O)N(C)[C@H](C(=O)N(C)CC)CC(=O)N2C)N2CC/C=C\C[C@@H](C2=O)N(C)C(=O)CN(C)C1=O [PP3058] | A (a compound having 10 or more and less than 20 is denoted as A) | A (a compound having 10 or more and less than 20 is denoted as A) |
| CCO[C@@H]1C[C@H]2C(=O)N(C)C3(CC(C)(C)C3)C(=O)N(C)[C@@H](C3CCCC3)C(=O)N(C)[C@H](C(=O)N(C)C)CC(=O)N(C)[C@H]3CCC/C=C/c4ccc(cc4)C[C@@H](C(=O)N(C)CC(=O)N[C@@H](CCc4ccc(Cl)c(Cl)c4)C(=O)N2C1)N1CC/C=C\C[C@@H](C1=O)N(C)C(=O)CN(C)C(=O)[C@H]([C@@H](C)CC)NC3=O [PP3059] | A (a compound having 10 or more and less than 20 is denoted as A) | A (a compound having 10 or more and less than 20 is denoted as A) |
| CCO[C@@H]1C[C@H]2C(=O)N(C)C3(CC(C)(C)C3)C(=O)N(C)[C@@H](C3CCCC3)C(=O)N(C)[C@H](C(=O)N(C)C)CC(=O)N(C)[C@H]3CCC/C=C/c4ccc(cc4)C[C@@H](C(=O)N(C)CC(=O)N[C@@H](CCc4cc(F)c(C(F)(F)F)c(F)c4)C(=O)N2C1)N1CC/C=C\C[C@@H](C1=O)N(C)C(=O)CN(C)C(=O)[C@H]([C@@H](C)CC)NC3=O [PP3060] | B (a compound having 3 or more and less than 10 is denoted as B) | B (a compound having 3 or more and less than 10 is denoted as B) |
| CCO[C@@H]1C[C@H]2C(=O)N(C)C3(CC(C)(C)C3)C(=O)N(C)[C@@H](C3CCCC3)C(=O)N(C)[C@H](C(=O)N(C)C)CC(=O)N(C)[C@H]3CCC/C=C/c4ccc(cc4)C[C@@H](C(=O)N(C)CC(=O)N[C@@H](CCc4ccc(Cl)c(Cl)c4)C(=O)N2C1)N1CC/C=C\C[C@@H](C1=O)N(C)C(=O)CN(C1CC1)C(=O)[C@H]([C@@H](C)CC)NC3=O [PP3061] | A (a compound having 10 or more and less than 20 is denoted as A) | A (a compound having 10 or more and less than 20 is denoted as A) |
| CCO[C@@H]1C[C@H]2C(=O)N(C)C3(CC(C)(C)C3)C(=O)N(C)[C@@H](C3CCCC3)C(=O)N(C)[C@H](C(=O)N(C)C)CC(=O)N(C)[C@H]3CCCC/C=C/c4ccc(cc4)C[C@@H](C(=O)N(C)CC(=O)N[C@@H](CCc4ccc(Cl)c(Cl)c4)C(=O)N2C1)N1CC/C=C\C[C@@H](C1=O)N(C)C(=O)CN(C)C(=O)[C@H]([C@@H](C)CC)NC3=O [PP3062] | A (a compound having 10 or more and less than 20 is denoted as A) | A (a compound having 10 or more and less than 20 is denoted as A) |
| CCCO[C@@H]1C[C@H]2C(=O)NC3(CC(C)(C)C3)C(=O)N(C)[C@@H](C(CC)CC)C(=O)N(C)[C@H](C(=O)N(C)C)CC(=O)N(C)[C@H]3CCCc4ccc(cc4)C[C@@H](C(=O)N(C)CC(=O)N[C@@H](CCc4ccc(C(F)(F)F)c(OC)c4)C(=O)N2C1)N1CC/C=C\C[C@@H](C1=O)N(C)C(=O)CN(C)C(=O)[C@H]([C@@H](C)CC)NC3=O [PP3063] | B (a compound having 3 or more and less than 10 is denoted as B) | B (a compound having 3 or more and less than 10 is denoted as B) |
| CCCO[C@@H]1C[C@H]2C(=O)NC3(CC(C)(C)C3)C(=O)N(C)[C@@H](C3CCCC3)C(=O)N(C)[C@H](C(=O)N3CCCCC3)CC(=O)N(C)[C@H]3CCCc4ccc(cc4)C[C@@H](C(=O)N(C)CC(=O)N[C@@H](CCc4ccc(C(F)(F)F)c(OC)c4)C(=O)N2C1)N1CC/C=C\C[C@@H](C1=O)N(C)C(=O)CN(C)C(=O)[C@H]([C@@H](C)CC)NC3=O [PP3064] | B (a compound having 3 or more and less than 10 is denoted as B) | B (a compound having 3 or more and less than 10 is denoted as B) |
| CCCO[C@@H]1C[C@H]2C(=O)NC3(CC(C)(C)C3)C(=O)N(C)[C@@H](C3CCCC3)C(=O)N(C)[C@H](C(=O)N3CCCC3)CC(=O)N(C)[C@H]3CCCc4ccc(cc4)C[C@@H](C(=O)N(C)CC(=O)N[C@@H](CCc4ccc(C(F)(F)F)c(OC)c4)C(=O)N2C1)N1CC/C=C\C[C@@H](C1=O)N(C)C(=O)CN(C)C(=O)[C@H]([C@@H](C)CC)NC3=O [PP3065] | A (a compound having 10 or more and less than 20 is denoted as A) | B (a compound having 3 or more and less than 10 is denoted as B) |
| CCO[C@@H]1C[C@H]2C(=O)NC3(CC(C)(C)C3)C(=O)N(C)[C@@H](C3CCCC3)C(=O)N(C)[C@H](C(=O)N(C)C)CC(=O)N(C)[C@H]3CCCCCCc4ccc(cc4)C[C@@H](C(=O)N(C)CC(=O)N[C@@H](CCc4ccc(C(F)(F)F)c(OC)c4)C(=O)N2C1)N1CC/C=C\C[C@@H](C1=O)N(C)C(=O)CN(C)C(=O)[C@H]([C@@H](C)CC)NC3=O [PP3066] | A (a compound having 10 or more and less than 20 is denoted as A) | B (a compound having 3 or more and less than 10 is denoted as B) |
| CC[C@H](C)[C@@H]1NC(=O)[C@@H]2CCCCCCc3ccc(cc3)C[C@@H](C(=O)N(C)CC(=O)N[C@@H](CCc3ccc(C(F)(F)F)c(OC)c3)C(=O)N3C[C@H](OC(C)C)C[C@H]3C(=O)NC3(CC(C)(C)C3)C(=O)N(C)[C@@H](C3CCCC3)C(=O)N(C)[C@H](C(=O)N(C)C)CC(=O)N2C)N2CC/C=C\C[C@@H](C2=O)N(C)C(=O)CN(C)C1=O [PP3067] | A (a compound having 10 or more and less than 20 is denoted as A) | B (a compound having 3 or more and less than 10 is denoted as B) |
| CC[C@H](C)[C@@H]1NC(=O)[C@@H]2CCCCCCc3ccc(cc3)C[C@@H](C(=O)N(C)CC(=O)N[C@@H](CCc3ccc(C(F)(F)F)c(OC)c3)C(=O)N3C[C@H](OC4CCC4)C[C@H]3C(=O)NC3(CC(C)(C)C3)C(=O)N(C)[C@@H](C3CCCC3)C(=O)N(C)[C@H](C(=O)N(C)C)CC(=O)N2C)N2CC/C=C\C[C@@H](C2=O)N(C)C(=O)CN(C)C1=O [PP3068] | A (a compound having 10 or more and less than 20 is denoted as A) | B (a compound having 3 or more and less than 10 is denoted as B) |
| CC[C@H](C)[C@@H]1NC(=O)[C@@H]2CCCCCCc3ccc(cc3)C[C@@H](C(=O)N(C)CC(=O)N[C@@H](CCc3ccc(C(F)(F)F)c(OC)c3)C(=O)N3CC4(CC4)C[C@H]3C(=O)NC3(CC(C)(C)C3)C(=O)N(C)[C@@H](C3CCCC3)C(=O)N(C)[C@H](C(=O)N(C)C)CC(=O)N2C)N2CC/C=C\C[C@@H](C2=O)N(C)C(=O)CN(C)C1=O [PP3069] | A (a compound having 10 or more and less than 20 is denoted as A) | B (a compound having 3 or more and less than 10 is denoted as B) |
| CCO[C@@H]1C[C@H]2C(=O)NC3(CC(C)(C)C3)C(=O)N(C)[C@@H](C3CCCC3)C(=O)N(C)[C@H](C(=O)N(C)C)CC(=O)N(C)[C@H]3CCCCCCc4ccc(cc4)C[C@@H](C(=O)N(C)CC(=O)N[C@@H](CCc4ccc(Cl)c(Cl)c4)C(=O)N2C1)N1CC/C=C\C[C@@H](C1=O)N(C)C(=O)CN(C)C(=O)[C@H]([C@@H](C)CC)NC3=O [PP3071] | A (a compound having 10 or more and less than 20 is denoted as A) | B (a compound having 3 or more and less than 10 is denoted as B) |
